Assay results published in US20150141460A1, “Anti-inflammatory Compositions” (Cambridge Enterprise Limited, priority 2007, published 2015).

Tests used:
[1] = test system: leukocytes in BAL fluid; test: Ovalbumin-induced lung inflammation model of asthma, cell counts in BAL fluid; format: in vivo, Brown Norway rats; conditions: 0.3 mg/kg daily by oral gavage day 8 to 21; p<0.01
From the text: Bars represent mean cell counts, shown on the Y axis in units of 10^6 cells, for groups of […] with whiskers representing SEM; * p<0.01 versus ‘sensitised’ using Student's unpaired t-test assuming equal variance, with two tails). The horizontal line represents the average number of leukocytes present in BAL fluid from the lungs of unchallenged rats. All rats in the remaining three groups received the same sensitisation and challenge regimen, but were either treated with vehicle only (‘Sensitised’), or with compound (I′) at 0.3 mg/kg bodyweight or with monteleukast (‘Singulair™’) at 30 mg/kg bodyweight, all administered daily by oral gavage.
Adult Brown Norway rats (200-300 g body weight; n=10 per group) were sensitised by a single intraperitoneal injection of 0.1 mg Ovalbumin on day 0. Each rat then received an intratracheal challenge with a solution of 1% ovalbumin (w/v) on day 8, and with 2% ovalbumin (w/v) on days 15, 18 and 21. The animals were then sacrificed 3 hours after the final challenge on day 21. […]
On sacrifice, total lung leukocyate recruitment was assessed by performing a broncheoalveolar lavage (BAL) using 4 lots of 3 ml sterile phosphate-buffered saline introduced through a tracheal cannula. For each animal, the BAL washes were combined, and the total cell population counted (using a haemocytometer). […]

[2] = target: target receptor (site of specific interaction of BN83250) (Homo sapiens, UniProt P30874); test: Competition for binding of [3H]-BN83250 to the target receptor on human myelomonocytic cell line; conditions: competition with 10 nM [3H]-BN83250; non-linear modelling
Sequence of target receptor (site of specific interaction of BN83250) (P30874 whole entry): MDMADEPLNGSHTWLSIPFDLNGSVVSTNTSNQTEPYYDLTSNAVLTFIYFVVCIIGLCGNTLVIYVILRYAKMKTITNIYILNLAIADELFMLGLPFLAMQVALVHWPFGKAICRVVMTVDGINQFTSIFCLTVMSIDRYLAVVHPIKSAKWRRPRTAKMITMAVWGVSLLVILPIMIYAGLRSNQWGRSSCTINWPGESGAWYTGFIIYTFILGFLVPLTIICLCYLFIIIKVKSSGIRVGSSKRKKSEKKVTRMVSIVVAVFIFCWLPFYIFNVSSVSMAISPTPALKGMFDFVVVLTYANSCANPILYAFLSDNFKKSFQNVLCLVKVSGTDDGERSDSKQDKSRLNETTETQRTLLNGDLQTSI
Method: In this experiment, each reaction received 10 nM labelled BN83250 (a lactam BSCI which binds to the same receptor as compound (I′)), together with various competitors (100 μM-1 pM). The total specific binding was the amount displaced by a large excess (100 μM). Each bar represents the mean of three replicate determinations, with whiskers representing SEM. The Y-axis represents the radioactive counts bound in each experiments in units of counts per minute (cpm). The upper dashed line represents the total binding under the conditions of the experiment, while the lower dashed line represents the non-specific binding; the specific binding is represented by the distance between the dashed lines.
The general pharmacology of the five compounds was assessed, both against the specific target receptor, and against a wide variety of other receptors, many related in structure to the target receptor. Specific binding to the target receptor was assessed by competition for the binding of [^3H]-BN83250 (BN83250 is (S)-3-(2′,2′-dimethyldodecanoylamino)-caprolactam; Fox et al. J Med Chem. […]; 48(3):867-74; an agent known to bind to the same target receptor as the lactam BSCIs disclosed here). Binding to non-target receptors was assessed by competition for the binding of various specific radioligands for other receptors which are well known in the art. […]

**Q.** For `CC(C)(C)C(=O)N[C@H]1CCCNC1=O` [Compound (I′), (S)-3-(2′,2′-dimethylpropanoylamino)-tetrahydropyridin-2-one], which “reduction of the number of leukocytes in the BAL washes” value [1] is on record?
**A.** Its value is 70%.

**Q.** What about the “Ka at target receptor (pM)” value [2] of the same compound?
**A.** The value was 50 pM.
